Laboratory results taken from patent US8980919B2, “Combination of a carbostyril and carnitine” (Otsuka Pharmaceutical Co., Ltd., priority 2008, dated 2015).

Tested on: chronic cerebral ischemia model rats
Assay: Immunohistological evaluation of brain in chronic cerebral ischemia model rats (ligation of both carotid arteries)
Assay type: in vivo, rat
Details: for number of GST-pi positive oligodendrocyte in the callosum: after LBCCA, L-carnitine 600 mg/kg/day, cilostazol 50 mg/kg/day, FIG. 2; for number of GST-pi positive oligodendrocyte in the callosum / 8-OHdG positive cell (cell dysfunction by peroxidation): vs vehicle; for 8-OHdG positive cell (cell dysfunction by peroxidation): day 7 to day 28 after LBCCA, FIG. 3; for 8-OHdG positive cell (cell dysfunction by peroxidation) / number of ss-DNA positive cells (marker of apoptosis) / HNE staining positive cells (peroxidative metabolism): P<0.01; for number of ss-DNA positive cells (marker of apoptosis) / HNE staining positive cells (peroxidative metabolism): vs vehicle group; for number of ss-DNA positive cells (marker of apoptosis): FIG. 5; for HNE staining positive cells (peroxidative metabolism): FIG. 4
Description: The cerebroprotective action of cilostazol for inflammatory reaction due to oxidative stress and glial cell was studied using chronic cerebral ischemia model rats as cerebrovascular dementia model animals. Using Wister rats (male, aged 7-8 weeks, body weights of 150-200 g), chronic cerebral ischemia model rats are prepared according to the method of […] et al. (Acta Neuropathol (Berl). 87, 484-492, 1993), i.e. by double-ligating both […] of the rats. As a physiological evaluation, body temperature and body fluid of the rats before/after the preparation are measured, and the cerebral blood flow thereof is analyzed with a Doppler device. To the rats of each administration group of vehicle, L-carnitine, cilostazol, and L-carnitine/cilostazol combination, each defined administration is done every day by natural ingestion from the day when the preparation of ischemia was completed to the final day for the experimental evaluation. […] After brain parenchyma of the rats is sliced in 20 μm, HE and KB stainings and several immunostainings are carried out. The dosage of each trial is 600 mg/kg/day for L-carnitine and 50 mg/kg/day for cilostazol. Regarding glial cell, the astrocyte is evaluated with an antibody for GFAP, the microglia is evaluated with an antibody for Iba-1, and the oligodendrocyte is evaluated with an antibody for glutathione S-transferase p^+ (GST-pi). And, the oxidative stress is evaluated with an antibody for anti 4-hydroxy-2-nonenal (HNE).

| SMILES | number of GST-pi positive oligodendrocyte in the callosum | 8-OHdG positive cell (cell dysfunction by peroxidation) | number of ss-DNA positive cells (marker of apoptosis) (day 14) | HNE staining positive cells (peroxidative metabolism) | number of ss-DNA positive cells (marker of apoptosis) (days 14, 21 and 28) |
| --- | --- | --- | --- | --- | --- |
| C[N+](C)(C)C[C@H](O)CC(=O)[O-] [carnitine, L-carnitine] | increased more than that of the vehicle group | significantly decreased | significantly decreased compared with the vehicle group | tended to significantly decrease compared with the vehicle group |  |
| O=C1CCc2cc(OCCCCc3nnnn3C3CCCCC3)ccc2N1 [cilostazol, 6-[4-(1-cyclohexyl-1H-tetrazol-5-yl)butoxy]-3,4-dihydrocarbostyril] | increased more than that of the vehicle group | significantly decreased |  | tended to significantly decrease compared with the vehicle group | significantly decreased compared with the vehicle group |
